According to US20260042764A1, “COMPOSITIONS AND METHODS FOR INHIBITION OF KRAS” (TheRas, Inc., priority 2022, published 2026):
pIC50: −log10 of the molar value.

These molecules were tested against T1, Avi-KRAS G12D (1-169) GppNHp/RAF1 RBD-3xFLAG (52-151) (Homo sapiens, UniProt P01116, G12D) (assay: Raf1-KRAS G12D-GppNHP disruption HTRF assay (Biological Example 1)). Conditions: KRAS G12D-GppNHp/RAF1 RBD HTRF.
T1 construct: Avi-KRAS G12D (1-169)
Type: binding
Outline: (§1)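 Measured with a KRAS/RAF1 HTRF assay at pH 7.5 in 10% DMSO, with two 1 h room-temperature incubations with shaking.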

T1 sequence (P01116 1-169 isoform P01116-2 G12D): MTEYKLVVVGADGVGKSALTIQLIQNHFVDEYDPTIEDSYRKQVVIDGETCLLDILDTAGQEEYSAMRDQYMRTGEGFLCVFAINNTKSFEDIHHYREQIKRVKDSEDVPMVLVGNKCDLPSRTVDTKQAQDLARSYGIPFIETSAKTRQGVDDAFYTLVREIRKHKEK

First: C[C@@H]1CN(c2nc(OC[C@@]34CCCN3C[C@H](F)C4)nc3c(F)c(-c4ccc(F)c5sc(N)c(C#N)c45)c(C(F)(F)F)cc23)Cc2cc(C(=O)N(C)C)nn21 [Compound 423]
Second: CN(C)C(=O)c1cc2n(n1)CCN(c1nc(OC[C@@]34CCCN3C[C@H](F)C4)nc3c(F)c(-c4ccc(F)c5sc(N)c(C#N)c45)c(C(F)(F)F)cc13)CC2 [Compound 426]
The pIC50 of the first is higher: 6.00 to 7.00 for the first, 5.00 to 6.00 for the second.

`C[C@@H]1[C@H](N(C)c2nc(OC[C@@]34CCCN3C[C@H](F)C4)nc3c(F)c(-c4ccc(F)c5sc(N)c(C#N)c45)c(C(F)(F)F)cc23)CCN1C(=O)C(C)(C)F` [Compound 424] and `CNC(=O)N1CC[C@@H](N(C)c2nc(OC[C@@]34CCCN3C[C@H](F)C4)nc3c(F)c(-c4ccc(F)c5sc(N)c(C#N)c45)c(C(F)(F)F)cc23)[C@H]1C` [Compound 427] fall in the same range of pIC50: 6.00 to 7.00 for the first, 6.00 to 7.00 for the second.

First: C[C@@H]1[C@H](N(C)c2nc(OC[C@@]34CCCN3C[C@H](F)C4)nc3c(F)c(-c4ccc(F)c5sc(N)c(C#N)c45)c(C(F)(F)F)cc23)CCN1C(=O)C1(F)CC1 [Compound 425]
Second: N#Cc1c(N)sc2c(F)ccc(-c3c(C(F)(F)F)cc4c(N5CCN6C(=O)OCC6C5)nc(OCC56CCCN5CC(F)C6)nc4c3F)c12 (stereo not drawn) [Compound 428]
The pIC50 of the first is higher: 6.00 to 7.00 for the first, 5.00 to 6.00 for the second. The first is the more potent here.

Each molecule was assayed against T2, Avi-KRAS G12R (1-169) GppNHp/RAF1 RBD-3xFLAG (52-151) (Homo sapiens, UniProt P01116, G12R) (assay: Raf1-KRAS G12R-GppNHP disruption HTRF assay (Biological Example 1)). Conditions: KRAS G12R-GppNHp/RAF1 RBD HTRF.
T2 construct: Avi-KRAS G12R (1-169)
Type: binding
Outline: as §1

T2 sequence (P01116 1-169 isoform P01116-2 G12R): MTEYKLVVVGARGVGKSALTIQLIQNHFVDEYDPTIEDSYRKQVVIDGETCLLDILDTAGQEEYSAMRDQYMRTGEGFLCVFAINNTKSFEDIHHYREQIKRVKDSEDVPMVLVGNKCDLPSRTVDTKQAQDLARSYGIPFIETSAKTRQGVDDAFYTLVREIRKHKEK

First: C[C@@H]1CN(c2nc(OC[C@@]34CCCN3C[C@H](F)C4)nc3c(F)c(-c4ccc(F)c5sc(N)c(C#N)c45)c(C(F)(F)F)cc23)Cc2cc(C(=O)N(C)C)nn21 [Compound 423]
Second: CN(C)C(=O)c1cc2n(n1)CCN(c1nc(OC[C@@]34CCCN3C[C@H](F)C4)nc3c(F)c(-c4ccc(F)c5sc(N)c(C#N)c45)c(C(F)(F)F)cc13)CC2 [Compound 426]
The pIC50 of the first is higher: 6.00 to 7.00 for the first, 5.00 to 6.00 for the second. The first is the more potent here.

`C[C@@H]1[C@H](N(C)c2nc(OC[C@@]34CCCN3C[C@H](F)C4)nc3c(F)c(-c4ccc(F)c5sc(N)c(C#N)c45)c(C(F)(F)F)cc23)CCN1C(=O)C(C)(C)F` [Compound 424] and `CNC(=O)N1CC[C@@H](N(C)c2nc(OC[C@@]34CCCN3C[C@H](F)C4)nc3c(F)c(-c4ccc(F)c5sc(N)c(C#N)c45)c(C(F)(F)F)cc23)[C@H]1C` [Compound 427] fall in the same range of pIC50: 6.00 to 7.00 for the first, 6.00 to 7.00 for the second.

Compared with `C[C@@H]1[C@H](N(C)c2nc(OC[C@@]34CCCN3C[C@H](F)C4)nc3c(F)c(-c4ccc(F)c5sc(N)c(C#N)c45)c(C(F)(F)F)cc23)CCN1C(=O)C1(F)CC1` [Compound 425], `N#Cc1c(N)sc2c(F)ccc(-c3c(C(F)(F)F)cc4c(N5CCN6C(=O)OCC6C5)nc(OCC56CCCN5CC(F)C6)nc4c3F)c12` (stereo not drawn) [Compound 428] is lower in pIC50: 6.00 to 7.00 for the first, 5.00 to 6.00 for the second. The first is the more potent here.

Each molecule was assayed against T3, Avi-KRAS G12V (1-169) GppNHp/RAF1 RBD-3xFLAG (52-151) (Homo sapiens, UniProt P01116, G12V) (assay: Raf1-KRAS G12V-GppNHP disruption HTRF assay (Biological Example 1)). Conditions: KRAS G12V-GppNHp/RAF1 RBD HTRF.
T3 construct: Avi-KRAS G12V (1-169)
Type: binding
Outline: as §1

T3 sequence (P01116 1-169 isoform P01116-2 G12V): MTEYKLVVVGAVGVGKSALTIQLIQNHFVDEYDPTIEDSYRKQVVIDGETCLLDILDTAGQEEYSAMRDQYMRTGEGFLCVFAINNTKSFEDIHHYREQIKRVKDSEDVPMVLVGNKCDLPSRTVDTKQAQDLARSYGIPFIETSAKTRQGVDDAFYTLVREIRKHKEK

First: C[C@@H]1CN(c2nc(OC[C@@]34CCCN3C[C@H](F)C4)nc3c(F)c(-c4ccc(F)c5sc(N)c(C#N)c45)c(C(F)(F)F)cc23)Cc2cc(C(=O)N(C)C)nn21 [Compound 423]
Second: CN(C)C(=O)c1cc2n(n1)CCN(c1nc(OC[C@@]34CCCN3C[C@H](F)C4)nc3c(F)c(-c4ccc(F)c5sc(N)c(C#N)c45)c(C(F)(F)F)cc13)CC2 [Compound 426]
The pIC50 of the first is higher: 6.00 to 7.00 for the first, 5.00 to 6.00 for the second. The first is the more potent here.

Compared with `C[C@@H]1[C@H](N(C)c2nc(OC[C@@]34CCCN3C[C@H](F)C4)nc3c(F)c(-c4ccc(F)c5sc(N)c(C#N)c45)c(C(F)(F)F)cc23)CCN1C(=O)C(C)(C)F` [Compound 424], `CNC(=O)N1CC[C@@H](N(C)c2nc(OC[C@@]34CCCN3C[C@H](F)C4)nc3c(F)c(-c4ccc(F)c5sc(N)c(C#N)c45)c(C(F)(F)F)cc23)[C@H]1C` [Compound 427] is higher in pIC50: 5.00 to 6.00 for the first, 6.00 to 7.00 for the second.

`C[C@@H]1[C@H](N(C)c2nc(OC[C@@]34CCCN3C[C@H](F)C4)nc3c(F)c(-c4ccc(F)c5sc(N)c(C#N)c45)c(C(F)(F)F)cc23)CCN1C(=O)C1(F)CC1` [Compound 425] and `N#Cc1c(N)sc2c(F)ccc(-c3c(C(F)(F)F)cc4c(N5CCN6C(=O)OCC6C5)nc(OCC56CCCN5CC(F)C6)nc4c3F)c12` (stereo not drawn) [Compound 428] fall in the same range of pIC50: 5.00 to 6.00 for the first, 5.00 to 6.00 for the second.

The molecules below were run against T4, Avi-KRAS WT (1-169) GppNHp/RAF1 RBD-3xFLAG (52-151) (Homo sapiens, UniProt P01116) (assay: Raf1-KRAS WT-GppNHP disruption HTRF assay (Biological Example 1)). Conditions: KRAS WT-GppNHp/RAF1 RBD HTRF.
T4 construct: Avi-KRAS WT (1-169)
Type: binding
Outline: as §1

T4 sequence (P01116 1-169 isoform P01116-2): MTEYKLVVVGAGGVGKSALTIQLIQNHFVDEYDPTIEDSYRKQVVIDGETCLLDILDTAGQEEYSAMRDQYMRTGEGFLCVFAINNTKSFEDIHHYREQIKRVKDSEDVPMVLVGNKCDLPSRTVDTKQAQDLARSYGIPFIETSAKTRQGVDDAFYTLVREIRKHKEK

Compared with `C[C@@H]1CN(c2nc(OC[C@@]34CCCN3C[C@H](F)C4)nc3c(F)c(-c4ccc(F)c5sc(N)c(C#N)c45)c(C(F)(F)F)cc23)Cc2cc(C(=O)N(C)C)nn21` [Compound 423], `CN(C)C(=O)c1cc2n(n1)CCN(c1nc(OC[C@@]34CCCN3C[C@H](F)C4)nc3c(F)c(-c4ccc(F)c5sc(N)c(C#N)c45)c(C(F)(F)F)cc13)CC2` [Compound 426] is lower in pIC50: 6.00 to 7.00 for the first, 5.00 to 6.00 for the second. The first is the more potent here.

`C[C@@H]1[C@H](N(C)c2nc(OC[C@@]34CCCN3C[C@H](F)C4)nc3c(F)c(-c4ccc(F)c5sc(N)c(C#N)c45)c(C(F)(F)F)cc23)CCN1C(=O)C(C)(C)F` [Compound 424] and `CNC(=O)N1CC[C@@H](N(C)c2nc(OC[C@@]34CCCN3C[C@H](F)C4)nc3c(F)c(-c4ccc(F)c5sc(N)c(C#N)c45)c(C(F)(F)F)cc23)[C@H]1C` [Compound 427] fall in the same range of pIC50: 6.00 to 7.00 for the first, 6.00 to 7.00 for the second.

`C[C@@H]1[C@H](N(C)c2nc(OC[C@@]34CCCN3C[C@H](F)C4)nc3c(F)c(-c4ccc(F)c5sc(N)c(C#N)c45)c(C(F)(F)F)cc23)CCN1C(=O)C1(F)CC1` [Compound 425] and `N#Cc1c(N)sc2c(F)ccc(-c3c(C(F)(F)F)cc4c(N5CCN6C(=O)OCC6C5)nc(OCC56CCCN5CC(F)C6)nc4c3F)c12` (stereo not drawn) [Compound 428] fall in the same range of pIC50: 6.00 to 7.00 for the first, 6.00 to 7.00 for the second.

These molecules were tested on GP2d cells (KRAS G12D) (assay: Cell-based pERK HTRF assay in GP2d cell (Biological Example 2)). Conditions: GP2d, GP2d (KRAS G12D) cells, pERK HTRF.
Outline: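 60 min compound, 0.25% DMSO, 9-pt half-log curve from 1 μM or 100 nM; DMEM/10% FBS.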

First: C[C@@H]1CN(c2nc(OC[C@@]34CCCN3C[C@H](F)C4)nc3c(F)c(-c4ccc(F)c5sc(N)c(C#N)c45)c(C(F)(F)F)cc23)Cc2cc(C(=O)N(C)C)nn21 [Compound 423]
Second: CN(C)C(=O)c1cc2n(n1)CCN(c1nc(OC[C@@]34CCCN3C[C@H](F)C4)nc3c(F)c(-c4ccc(F)c5sc(N)c(C#N)c45)c(C(F)(F)F)cc13)CC2 [Compound 426]
The pIC50 of the first is higher: greater than 7.00 for the first, 6.00 to 7.00 for the second.

`C[C@@H]1[C@H](N(C)c2nc(OC[C@@]34CCCN3C[C@H](F)C4)nc3c(F)c(-c4ccc(F)c5sc(N)c(C#N)c45)c(C(F)(F)F)cc23)CCN1C(=O)C(C)(C)F` [Compound 424] and `CNC(=O)N1CC[C@@H](N(C)c2nc(OC[C@@]34CCCN3C[C@H](F)C4)nc3c(F)c(-c4ccc(F)c5sc(N)c(C#N)c45)c(C(F)(F)F)cc23)[C@H]1C` [Compound 427] cannot be ordered by pIC50: greater than 7.00 for the first, greater than 7.00 for the second.

`C[C@@H]1[C@H](N(C)c2nc(OC[C@@]34CCCN3C[C@H](F)C4)nc3c(F)c(-c4ccc(F)c5sc(N)c(C#N)c45)c(C(F)(F)F)cc23)CCN1C(=O)C1(F)CC1` [Compound 425] and `N#Cc1c(N)sc2c(F)ccc(-c3c(C(F)(F)F)cc4c(N5CCN6C(=O)OCC6C5)nc(OCC56CCCN5CC(F)C6)nc4c3F)c12` (stereo not drawn) [Compound 428] cannot be ordered by pIC50: greater than 7.00 for the first, greater than 7.00 for the second.

The molecules below were run on SW620 cells (KRAS G12V) (assay: Cell-based pERK HTRF assay in SW620 cell (Biological Example 4)). Conditions: Homo sapiens, SW-620, SW620 (KRAS G12V) cells, pERK HTRF.
Outline: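 SW620 cells were treated for 4 h with compound in a 9-point half-log series from 1 μM top (0.25% DMSO), then lysed. Phospho-ERK was detected by HTRF with d2 and Eu cryptate antibodies after 4–24 h at room temperature, read at 615 nm emission.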

Compared with `C[C@@H]1CN(c2nc(OC[C@@]34CCCN3C[C@H](F)C4)nc3c(F)c(-c4ccc(F)c5sc(N)c(C#N)c45)c(C(F)(F)F)cc23)Cc2cc(C(=O)N(C)C)nn21` [Compound 423], `CN(C)C(=O)c1cc2n(n1)CCN(c1nc(OC[C@@]34CCCN3C[C@H](F)C4)nc3c(F)c(-c4ccc(F)c5sc(N)c(C#N)c45)c(C(F)(F)F)cc13)CC2` [Compound 426] is lower in pIC50: greater than 7.00 for the first, 6.00 to 7.00 for the second. The first is the more potent here.

Compared with `C[C@@H]1[C@H](N(C)c2nc(OC[C@@]34CCCN3C[C@H](F)C4)nc3c(F)c(-c4ccc(F)c5sc(N)c(C#N)c45)c(C(F)(F)F)cc23)CCN1C(=O)C(C)(C)F` [Compound 424], `CNC(=O)N1CC[C@@H](N(C)c2nc(OC[C@@]34CCCN3C[C@H](F)C4)nc3c(F)c(-c4ccc(F)c5sc(N)c(C#N)c45)c(C(F)(F)F)cc23)[C@H]1C` [Compound 427] is higher in pIC50: 6.00 to 7.00 for the first, greater than 7.00 for the second.

`C[C@@H]1[C@H](N(C)c2nc(OC[C@@]34CCCN3C[C@H](F)C4)nc3c(F)c(-c4ccc(F)c5sc(N)c(C#N)c45)c(C(F)(F)F)cc23)CCN1C(=O)C1(F)CC1` [Compound 425] and `N#Cc1c(N)sc2c(F)ccc(-c3c(C(F)(F)F)cc4c(N5CCN6C(=O)OCC6C5)nc(OCC56CCCN5CC(F)C6)nc4c3F)c12` (stereo not drawn) [Compound 428] cannot be ordered by pIC50: greater than 7.00 for the first, greater than 7.00 for the second.
